Data as given in ChEMBL document CHEMBL3272271, “Folate antagonists. 13. 2,4-Diamino-6-](alpha,alpha,alpha-trifluoro-m-tolyl)thio]quinazoline and related 2,4-diamino-6-[(phenyl- and naphthyl)thio]quinazolines, a unique class of antimetabolites with extraordinary antimalarial and antibacterial effects” (J Med Chem, 1978).
Values after ≈ are worked out from the molar mass of the structure shown. Active and inactive are the calls of the source. The rule behind the calls is not given here.

Experiments:
Plasmodium gallinaceum [1] = experiment: Antimalarial activity against trophozoite-induced Plasmodium gallinaceum infected in white leghorn chicken assessed as increase in mean survival days of host at 20 mg/kg, sc administered 72 hrs after infection relative to control; assay type: functional; details: route subcutaneous
Plasmodium gallinaceum [2] = experiment: Antimalarial activity against sporozoite-induced Plasmodium gallinaceum infected in white leghorn chicken assessed as disease cure from parasite infection at 60 mg/kg, sc administered 72 hrs after infection; assay type: functional, organism-based; set-up: dose 60 mg/kg
Plasmodium berghei [3] = experiment: Antimalarial activity against Plasmodium berghei infected in mouse assessed as disease cure from parasite infection at 80 mg/kg, sc administered 72 hrs after infection; assay type: functional, organism-based; set-up: dose 80 mg/kg
Plasmodium gallinaceum [4] = experiment: Antimalarial activity against sporozoite-induced Plasmodium gallinaceum infected in white leghorn chicken assessed as disease cure from parasite infection at 480 mg/kg, sc administered 72 hrs after infection; assay type: functional, organism-based; set-up: dose 480 mg/kg
Plasmodium berghei [5] = experiment: Antimalarial activity against Plasmodium berghei infected in mouse assessed as disease cure from parasite infection at 10 mg/kg, sc administered 72 hrs after infection; assay type: functional, organism-based; set-up: dose 10 mg/kg
Escherichia coli = experiment: Antibacterial activity against Escherichia coli Vogel by gradient plate test; assay type: functional
Plasmodium gallinaceum [6] = experiment: Antimalarial activity against sporozoite-induced Plasmodium gallinaceum infected in white leghorn chicken assessed as disease cure from parasite infection at 7.5 mg/kg, sc administered 72 hrs after infection; assay type: functional, organism-based; set-up: dose 7.5 mg/kg
Staphylococcus aureus [7] = experiment: Antibacterial activity against drug-resistant Staphylococcus aureus S18713 by gradient plate test; assay type: functional
Plasmodium berghei [8] = experiment: Antimalarial activity against Plasmodium berghei infected in mouse assessed as disease cure from parasite infection at 160 mg/kg, sc administered 72 hrs after infection; assay type: functional, organism-based; set-up: dose 160 mg/kg
Plasmodium berghei [9] = experiment: Antimalarial activity against Plasmodium berghei infected in mouse assessed as increase in mean survival days of host at 2.5 mg/kg, sc administered 72 hrs after infection relative to control; assay type: functional; details: route subcutaneous
Plasmodium gallinaceum [10] = experiment: Antimalarial activity against sporozoite-induced Plasmodium gallinaceum infected in white leghorn chicken assessed as disease cure from parasite infection at 30 mg/kg, sc administered 72 hrs after infection; assay type: functional, organism-based; set-up: dose 30 mg/kg
Plasmodium berghei [11] = experiment: Antimalarial activity against Plasmodium berghei infected in mouse assessed as increase in mean survival days of host at 20 mg/kg, sc administered 72 hrs after infection relative to control; assay type: functional; details: route subcutaneous
Plasmodium berghei [12] = experiment: Antimalarial activity against Plasmodium berghei infected in mouse assessed as disease cure from parasite infection at 320 mg/kg, sc administered 72 hrs after infection; assay type: functional, organism-based; set-up: dose 320 mg/kg
Staphylococcus aureus [13] = experiment: Antibacterial activity against Staphylococcus aureus UC-96 by gradient plate test; assay type: functional
Plasmodium berghei [14] = experiment: Antimalarial activity against Plasmodium berghei infected in mouse assessed as increase in mean survival days of host at 10 mg/kg, sc administered 72 hrs after infection relative to control; assay type: functional; details: route subcutaneous
Plasmodium berghei [15] = experiment: Antimalarial activity against Plasmodium berghei infected in mouse assessed as increase in mean survival days of host at 5 mg/kg, sc administered 72 hrs after infection relative to control; assay type: functional; details: route subcutaneous
Plasmodium berghei [16] = experiment: Antimalarial activity against chloroquine-resistant Plasmodium berghei assessed as drug resistance; assay type: functional, organism-based
Plasmodium gallinaceum [17] = experiment: Antimalarial activity against trophozoite-induced Plasmodium gallinaceum infected in white leghorn chicken assessed as increase in mean survival days of host at 2.5 mg/kg, sc administered 72 hrs after infection relative to control; assay type: functional; details: route subcutaneous
Plasmodium berghei [18] = experiment: Ratio of quinine hydrochloride SD90 to compound SD90 for trophozoite-induced Plasmodium berghei infected in mouse assessed as daily dose required to suppression of 90% parasite infection administered with diet for 6 days; assay type: functional
Plasmodium gallinaceum [19] = experiment: Antimalarial activity against trophozoite-induced Plasmodium gallinaceum infected in white leghorn chicken assessed as increase in mean survival days of host at 40 mg/kg, sc administered 72 hrs after infection relative to control; assay type: functional; details: route subcutaneous
Shigella sonnei = experiment: Antibacterial activity against Shigella sonnei C-10 by gradient plate test; assay type: functional
Plasmodium berghei [20] = experiment: Antimalarial activity against Plasmodium berghei infected in mouse assessed as increase in mean survival days of host at 1.25 mg/kg, sc administered 72 hrs after infection relative to control; assay type: functional; details: route subcutaneous
Plasmodium berghei [21] = experiment: Antimalarial activity against cycloguanil-resistant Plasmodium berghei assessed as drug resistance; assay type: functional, organism-based
Pseudomonas aeruginosa = experiment: Antibacterial activity against Pseudomonas aeruginosa 28 by gradient plate test; assay type: functional
Plasmodium berghei [22] = experiment: Antimalarial activity against Plasmodium berghei infected in mouse assessed as disease cure from parasite infection at 640 mg/kg, sc administered 72 hrs after infection; assay type: functional, organism-based; set-up: dose 640 mg/kg
Plasmodium gallinaceum [23] = experiment: Antimalarial activity against trophozoite-induced Plasmodium gallinaceum infected in white leghorn chicken assessed as increase in mean survival days of host at 1.25 mg/kg, sc administered 72 hrs after infection relative to control; assay type: functional; details: route subcutaneous
Plasmodium berghei [24] = experiment: Antimalarial activity against Plasmodium berghei infected in mouse assessed as disease cure from parasite infection at 20 mg/kg, sc administered 72 hrs after infection; assay type: functional, organism-based; set-up: dose 20 mg/kg
Plasmodium berghei [25] = experiment: Antimalarial activity against trophozoite-induced Plasmodium berghei infected in mouse assessed as daily dose required to suppression of 90% parasite infection administered with diet for 6 days; assay type: functional
Plasmodium gallinaceum [26] = experiment: Antimalarial activity against sporozoite-induced Plasmodium gallinaceum infected in white leghorn chicken assessed as disease cure from parasite infection at 240 mg/kg, sc administered 72 hrs after infection; assay type: functional, organism-based; set-up: dose 240 mg/kg
Plasmodium gallinaceum [27] = experiment: Antimalarial activity against trophozoite-induced Plasmodium gallinaceum infected in white leghorn chicken assessed as increase in mean survival days of host at 5 mg/kg, sc administered 72 hrs after infection relative to control; assay type: functional; details: route subcutaneous
Plasmodium gallinaceum [28] = experiment: Antimalarial activity against sporozoite-induced Plasmodium gallinaceum infected in white leghorn chicken assessed as disease cure from parasite infection at 15 mg/kg, sc administered 72 hrs after infection; assay type: functional, organism-based; set-up: dose 15 mg/kg
Plasmodium gallinaceum [29] = experiment: Antimalarial activity against sporozoite-induced Plasmodium gallinaceum infected in white leghorn chicken assessed as disease cure from parasite infection at 120 mg/kg, sc administered 72 hrs after infection; assay type: functional, organism-based; set-up: dose 120 mg/kg
Enterococcus faecalis = experiment: Antibacterial activity against Streptococcus faecalis MGH-2 by gradient plate test; assay type: functional
Plasmodium berghei [30] = experiment: Antimalarial activity against Plasmodium berghei infected in mouse assessed as disease cure from parasite infection at 40 mg/kg, sc administered 72 hrs after infection; assay type: functional, organism-based; set-up: dose 40 mg/kg
Plasmodium gallinaceum [31] = experiment: Antimalarial activity against trophozoite-induced Plasmodium gallinaceum infected in white leghorn chicken assessed as increase in mean survival days of host at 10 mg/kg, sc administered 72 hrs after infection relative to control; assay type: functional; details: route subcutaneous
Plasmodium gallinaceum [32] = experiment: Antimalarial activity against trophozoite-induced Plasmodium gallinaceum infected in white leghorn chicken assessed as increase in mean survival days of host at 160 mg/kg, sc administered 72 hrs after infection relative to control; assay type: functional; details: route subcutaneous
Plasmodium gallinaceum [33] = experiment: Antimalarial activity against sporozoite-induced Plasmodium gallinaceum infected in white leghorn chicken assessed as increase in mean survival days of host at 240 mg/kg, sc administered 72 hrs after infection relative to control; assay type: functional; details: route subcutaneous
Plasmodium berghei [34] = experiment: Antimalarial activity against Plasmodium berghei infected in mouse assessed as increase in mean survival days of host at 40 mg/kg, sc administered 72 hrs after infection relative to control; assay type: functional; details: route subcutaneous
Plasmodium berghei [35] = experiment: Antimalarial activity against Plasmodium berghei infected in mouse assessed as increase in mean survival days of host at 80 mg/kg, sc administered 72 hrs after infection relative to control; assay type: functional; details: route subcutaneous
Plasmodium gallinaceum [36] = experiment: Antimalarial activity against sporozoite-induced Plasmodium gallinaceum infected in white leghorn chicken assessed as increase in mean survival days of host at 120 mg/kg, sc administered 72 hrs after infection relative to control; assay type: functional; details: route subcutaneous
Plasmodium gallinaceum [37] = experiment: Antimalarial activity against trophozoite-induced Plasmodium gallinaceum infected in white leghorn chicken assessed as increase in mean survival days of host at 320 mg/kg, sc administered 72 hrs after infection relative to control; assay type: functional; details: route subcutaneous
Gallus gallus [38] = experiment: Toxicity in sporozoite-induced Plasmodium gallinaceum infected white leghorn chicken assessed as mortality at 240 mg/kg, sc administered 72 hrs after infection measured up to 6 days; assay type: organism-based; set-up: dose 240 mg/kg, route subcutaneous; details: in vivo
Plasmodium berghei [39] = experiment: Antimalarial activity against Plasmodium berghei infected in mouse assessed as increase in mean survival days of host at 320 mg/kg, sc administered 72 hrs after infection relative to control; assay type: functional; details: route subcutaneous
Gallus gallus [40] = experiment: Toxicity in sporozoite-induced Plasmodium gallinaceum infected white leghorn chicken assessed as mortality at 480 mg/kg, sc administered 72 hrs after infection measured up to 6 days; assay type: organism-based; set-up: dose 480 mg/kg, route subcutaneous; details: in vivo
Plasmodium berghei [41] = experiment: Antimalarial activity against Plasmodium berghei infected in mouse assessed as increase in mean survival days of host at 160 mg/kg, sc administered 72 hrs after infection relative to control; assay type: functional; details: route subcutaneous
Plasmodium gallinaceum [42] = experiment: Antimalarial activity against trophozoite-induced Plasmodium gallinaceum infected in white leghorn chicken assessed as increase in mean survival days of host at 80 mg/kg, sc administered 72 hrs after infection relative to control; assay type: functional; details: route subcutaneous
Gallus gallus [43] = experiment: Toxicity in trophozoite-induced Plasmodium gallinaceum infected white leghorn chicken assessed as mortality at 320 mg/kg, sc administered 72 hrs after infection measured after 48 hrs; assay type: organism-based; set-up: dose 320 mg/kg, route subcutaneous; details: in vivo

| SMILES | MST (Plasmodium gallinaceum [1]) [days] | MIC (Escherichia coli) [µg/mL] | MIC (Staphylococcus aureus [7]) [µg/mL] | Activity (Plasmodium berghei [8]) | MST (Plasmodium berghei [9]) [days] | MST (Plasmodium berghei [11]) [days] | Activity (Plasmodium berghei [12]) | MIC (Staphylococcus aureus [13]) [µg/mL] | MST (Plasmodium berghei [14]) [days] | MST (Plasmodium berghei [15]) [days] | MST (Plasmodium gallinaceum [17]) [days] | Ratio (Plasmodium berghei [18]) | MST (Plasmodium gallinaceum [19]) [days] | MIC (Shigella sonnei) [µg/mL] | MST (Plasmodium berghei [20]) [days] | MIC (Pseudomonas aeruginosa) [µg/mL] | MST (Plasmodium gallinaceum [23]) [days] | SD90 (Plasmodium berghei [25]) [mg/kg/day] | MST (Plasmodium gallinaceum [27]) [days] | MST (Plasmodium gallinaceum [31]) [days] | also measured |
| --- | --- | --- | --- | --- | --- | --- | --- | --- | --- | --- | --- | --- | --- | --- | --- | --- | --- | --- | --- | --- | --- |
| Nc1nc(N)c2cc(Sc3ccc(Br)cc3)ccc2n1 | 11.8 | 1 (≈ 2.88 µM) | < 0.25 | Active | 3.6 | 14.4 | Active | < 0.25 | 19.6 | 6.7 | 6 | 62 | 12.8 | 2 (≈ 5.76 µM) | 2.2 | > 25 | 3 | 1.2 | 7.2 | 8.2 | Activity (Plasmodium gallinaceum [2]): Active; Activity (Plasmodium berghei [3]): Active; Activity (Plasmodium gallinaceum [4]): Active; Activity (Plasmodium berghei [5]): Active; Activity (Plasmodium gallinaceum [6]): Active; Activity (Plasmodium gallinaceum [10]): Active; Activity (Plasmodium berghei [16]): inactive; Activity (Plasmodium berghei [21]): Active; Activity (Plasmodium berghei [22]): Active; Activity (Plasmodium berghei [24]): Active; Activity (Plasmodium gallinaceum [26]): Active; Activity (Plasmodium gallinaceum [28]): Active; Activity (Plasmodium gallinaceum [29]): Active; MIC (Enterococcus faecalis): < 0.25 µg/mL; Activity (Plasmodium berghei [30]): Active |
| Nc1nc(N)c2cc(Sc3ccccc3)ccc2n1 | 5.6 | < 0.25 | < 0.25 | Active |  | 4.7 | Active | < 0.25 | 3.3 | 1.1 |  | 9.1 | 6.2 | < 0.25 |  | > 25 |  | 8.2 |  | 0 | MST (Plasmodium gallinaceum [32]): 7.8 days; MST (Plasmodium gallinaceum [33]): 1.6 days; MST (Plasmodium berghei [34]): 6.3 days; MST (Plasmodium berghei [35]): 9.7 days; MST (Plasmodium gallinaceum [36]): 2.4 days; MST (Plasmodium gallinaceum [37]): 11.4 days; Activity (Gallus gallus [38]): Toxic; MST (Plasmodium berghei [39]): 14.7 days; Activity (Gallus gallus [40]): Toxic; MST (Plasmodium berghei [41]): 14 days; MIC (Enterococcus faecalis): < 0.25 µg/mL; MST (Plasmodium gallinaceum [42]): 6.4 days |
| CN(Cc1ccc(Cl)c(Cl)c1)c1ccc2nc(N)nc(N)c2c1 | 10.6 |  |  |  | 1.5 | 14.9 |  |  | 7.5 | 2.9 | 6 |  | 15.6 |  | 0.3 |  | 1.4 |  | 6.8 | 7.4 | MST (Plasmodium gallinaceum [32]): 21 days; Activity (Gallus gallus [43]): Toxic; MST (Plasmodium gallinaceum [42]): 20.6 days |
